Values joined by “and” are separate entries in the source; they are usually repeats but may differ in a detail not shown here. Equal values may be shown once.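 Growth conditions: 96-well plates. Treatment: test compound, 48 hours, 5 concentrations. Analysis: linear interpolation between bracketing concentrations; unreached endpoints set to highest concentration. GI50 = concentration required for 50% inhibition of growth. Definition used: TGI = concentration required for complete inhibition of growth.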
What was measured:
Test in all cases: NCI tumour cell line growth inhibition, 48 h
DMS 273 small cell lung = test system: DMS 273 small cell lung
HOP-18 NSCLC = test system: HOP-18 NSCLC
KM20L2 colon = test system: KM20L2 colon
M19-MEL melanoma = test system: M19-MEL melanoma
NCI-H522 lung = test system: NCI-H522 lung
U251 CNS = test system: U251 CNS
XF 498 CNS = test system: XF 498 CNS
MDA-MB-435 = test system: MDA-MB-435
NCI/ADR-RES ovarian = test system: NCI/ADR-RES ovarian
PC-3 prostate = test system: PC-3 prostate

| Structure (SMILES) | GI50 (DMS 273 small cell lung) [µM] | TGI (DMS 273 small cell lung) [µM] | GI50 (HOP-18 NSCLC) [µM] | TGI (HOP-18 NSCLC) [µM] | GI50 (KM20L2 colon) [µM] | TGI (KM20L2 colon) [µM] | GI50 (M19-MEL melanoma) [µM] | TGI (M19-MEL melanoma) [µM] | GI50 (NCI-H522 lung) [µM] | TGI (NCI-H522 lung) | GI50 (U251 CNS) [µM] | TGI (U251 CNS) [µM] | TGI (XF 498 CNS) [µM] | GI50 (MDA-MB-435) [µM] | TGI (MDA-MB-435) [µM] | TGI (NCI/ADR-RES ovarian) | GI50 (PC-3 prostate) [µM] | TGI (PC-3 prostate) | GI50 (NCI/ADR-RES ovarian) [µM] |
| --- | --- | --- | --- | --- | --- | --- | --- | --- | --- | --- | --- | --- | --- | --- | --- | --- | --- | --- | --- |
| CC(=O)[O-].CCN(CC)c1ccc(C=NCCN=Cc2ccc(N(CC)CC)cc2[O-])c([O-])c1.[Mn+3] | 22.4 | 45.8 | 18.7 | 35.5 | 17.8 | 33.2 | 17.7 | 32.4 | 43.3 | 61.9 µM | 15.4 | 29.3 | – | – | – | – | – | – | – |
| Cc1nc(N)sc1C(=O)/C=C\c1ccc2c(c1)OCO2 | – | > 100 | – | > 100 | – | > 100 | – | > 100 | – | > 100 µM | – | > 100 | > 100 | – | – | – | – | – | – |
| Cc1cccc(NC(=O)C(=O)C(C(=O)c2ccc3ccccc3c2)C2OC(=O)c3ccccc32)c1C (stereo unspecified) | – | 39 | – | – | – | > 100 | – | 21.9 | – | 43.5 µM | – | 23.1 | 9.47 | – | – | – | – | – | – |
| CCC[CH2][Sn]1([CH2]CCC)[O]CC(CN2CCCC2)[O]1 (stereo unspecified) | 16.3 | 30.8 | – | – | 20.6 | 52 | 14.6 | 29.4 | 3.32 | 11.1 µM | 15.3 | 29.1 | – | – | – | – | – | – | – |
| COC1(OC)C2(Cl)C(Cl)=C(Cl)C1(Cl)C1C=CC=CC12 (stereo unspecified) | – | > 100 | – | – | – | > 100 | – | > 100 | – | > 100 µM | – | > 100 | > 100 | – | – | – | – | – | – |
| Cc1cccc(NC(=O)/C(=N\NC(C)(C)C)C2NC(=S)NC2=O)c1C (stereo unspecified) | – | – | – | – | – | > 100 | – | > 100 | – | – | – | > 100 | – | – | – | – | – | – | – |
| COc1cc2c(c(OC)c1OC)-c1ccc(OC)c(=O)cc1[C@@H](NC(=O)c1ccccc1)CC2 | – | – | – | > 100 | – | – | – | > 100 | 0.00357 | 0.0125 µM and 0.0205 µM | – | 4.06 | 3.86 | < 0.003 | < 0.003 | 1.15 µM and 1.05 µM | < 0.003 | 30 µM and > 56.5 µM | – |
| Cn1c(=O)c(C(c2ccc([N+](=O)[O-])cc2)c2c(O)c3ccccc3n(C)c2=O)cc2ccccc21 (stereo unspecified) | – | > 100 | – | > 100 | – | > 100 | – | > 100 | – | > 100 µM | – | 66.8 | > 100 | – | – | – | – | – | – |
| COC(=O)/C(=N\Nc1nnc(C)n1N)C(C#N)c1ccc(Cl)cc1 (stereo unspecified) | – | > 100 | – | > 100 | – | > 100 | – | > 100 | – | – | – | > 100 | > 100 | – | – | – | – | – | – |
| COc1cc(C(C)O)c[n+](CCc2c[nH]c3ccccc23)c1 (stereo unspecified) | – | > 100 | – | – | – | > 100 | – | > 100 | – | > 100 µM | – | > 100 | > 100 | – | – | – | – | – | – |
| Cc1ccn2c(c1)nc1nc3ccccc3nc12 | – | > 100 | – | – | – | > 100 | – | > 100 | – | > 100 µM | – | > 100 | > 100 | – | – | – | – | – | – |
| NCCCCN(CCCN)/[N+]([O-])=N\O | – | > 100 | – | > 100 | – | > 100 | – | > 100 | – | > 100 µM | – | > 100 | – | – | – | – | – | – | – |
| N#CC(NNC(=O)Cc1ccccc1)c1c(O)ccc2ccccc12 (stereo unspecified) | – | 19.1 | – | 35.4 | – | 42 | – | 16.3 | – | 34 µM | – | 45 | – | – | 84.1 | 16 µM | – | > 62.9 µM | – |
| O=C1CCN2C(=O)CCN12 | – | – | – | – | – | – | – | > 100 | – | > 100 µM | – | > 100 | > 100 | – | – | – | – | – | – |
| O=C1C2C3C=C4c5ccccc5N(c5ccccc5)C4(C2C(=O)N1Cc1ccccc1)C1C(=O)N(Cc2ccccc2)C(=O)C31 (stereo unspecified) | – | – | – | > 100 | – | > 100 | – | > 100 | – | – | – | > 100 | > 100 | – | – | – | – | – | – |
| CCOC(=O)[C@@H](N)CCC(=O)N[C@@H](CSCc1ccccc1)C(=O)N[C@@H](C(=O)OCC)c1ccccc1 | – | – | – | – | – | – | – | – | 16.2 | 32.4 µM | 16.6 | 31.3 | – | 16.5 | 32.4 | > 100 µM | 16.5 | 37.3 µM | > 100 |
| Clc1nc(Cl)c(Cl)c(-c2ccccc2)n1 | – | – | – | – | – | – | – | – | – | 3.2 µM | – | 30.3 | – | – | 28.7 | > 100 µM | – | 39.3 µM | – |
| NS(=O)(=O)c1ccc(N=Nc2c(O)[nH]c3ccc(-c4cnco4)cc23)cc1 | – | – | – | – | – | – | – | – | > 6.68 | > 25 µM | > 25 | > 25 | – | > 25 | > 25 | > 25 µM | > 25 | > 25 µM | > 25 |
| O=C(NC1=CC(=O)c2ccccc2C1=O)c1ccccc1 | – | – | – | – | – | – | – | – | 0.702 | 2.76 µM | 0.42 | 11.6 | – | 0.94 | 2.29 | 14.9 µM | 0.421 | 2.44 µM | 1.26 |
| CN1CCN(CCCOc2ccc3nc(Nc4ccc(Cl)c(C(F)(F)F)c4)ccc3c2)CC1 | – | – | – | – | – | – | – | – | 14.1 | 28.1 µM | 12.5 | 26.2 | – | 11.7 | 24.2 | 33.2 µM | 13.3 | 27.1 µM | 14.7 |
| COc1ccc(Nc2c3ccccc3nc3occc23)cc1 | – | – | – | – | – | – | – | – | 2.35 | > 100 µM | 3.85 | > 100 | – | 0.171 | – | > 36.8 µM | 3.25 | > 39.5 µM | 0.921 |
| CS/C(N)=N\NC(=O)CCC(=O)Nc1ccccc1C(F)(F)F | – | > 100 | – | > 100 | – | > 58.5 | – | > 100 | – | > 100 µM | – | > 100 | – | – | – | – | – | – | – |
| O=C1OC(c2ccccc2)=N/C1=C\c1cccc2ccccc12 | – | > 100 | – | > 100 | – | – | – | > 100 | – | > 100 µM | – | > 100 | > 100 | – | – | – | – | – | – |
| CC(C)n1nc(-c2cc3cc(O)ccc3[nH]2)c2c(N)ncnc21 | – | – | – | – | – | – | – | – | 0.0974 | 2.02 µM | 0.565 | 10.9 | – | 0.219 | 1.77 | 7.22 µM | 0.086 | 6.45 µM | 0.348 |
| CCOc1ccccc1NC(=O)CC(C(=O)OC)C(=O)C(=O)OC (stereo unspecified) | – | > 100 | – | > 100 | – | > 100 | – | > 100 | – | > 100 µM | – | > 100 | – | – | – | – | – | – | – |

Source: PubChem BioAssay (NCI)
